Data: PMC5958115, “A novel small molecule chaperone of rod opsin and its potential therapy for retinal degeneration” (Nature Communications, 2018)

Key:
Abca4−/−Rdh8−/− mice = test: Bright light-induced retinal degeneration (SD-OCT, HE staining); format: in vivo, mouse; conditions: 50 or 200 mg kg^−1 bw i.p. 30 min before 10,000 lux for 30 min; day 7
Method: Abca4^−/−Rdh8^−/− [42] mice with a 129 Sv/Ev or C57BL/6 mixed background were used for light-induced retinal degeneration assays. […] Male and female C57BL/6 mice (Jackson Laboratory, Bar Harbor, ME) at 6 weeks of age were used to test the effects of YC-001 treatment on the retinoid cycle and bw as well as to determine parenterally administrated YC-001 entering the eyes. YC-001 was dissolved in DMSO at 80–160 mg mL^−1, and the solution was provided to mice by i.p. injection. All mice were housed and maintained in a 12 h light (≤10 lux)/12 h dark cycle in the Animal Resource Center at the School of Medicine, CWRU. […]
Retinal degeneration was initiated by exposing Abca4^−/−Rdh8^−/− mice for 30 min to white light with an intensity of 10,000 lux (150-W spiral lamp, Hampton Bay, Home Depot, Atlanta, GA USA)[43]. […] Retinal structures were analyzed by SD-OCT seven days after bright light exposure. […]
To assess the effect of YC-001 treatment on Abca4^−/−Rdh8^−/− mice following bright light-induced retinal degeneration, we performed ultrahigh-resolution SD-OCT (Bioptigen, Morrisville, NC) for in vivo imaging of mouse retinas. […] To measure changes to photoreceptors in the retinas challenged with bright light and assess the effect of YC-001 on retinal protection, the thickness of the ONL was measured along the scanned SD-OCT image at 8 points from the nasal to temporal end of the retina. […]

[1] = Metabolic stability in mouse liver microsomes; format: in vitro ADME; conditions: 5 µM, NADPH, 37 °C
Method: A standard metabolic stability assay was performed in the presence of mouse or human liver microsomes. YC-001 (5 µM) was incubated with the microsomes (0.125 mg mL^−1) resuspended in 0.2 mL of PBS buffer, pH 7.4 composed of 10 mM Na2HPO4, 1.8 mM KH2PO4, 137 mM NaCl, and 2.7 mM KCl. The enzymatic reaction to produce oxidized metabolites was initiated by addition of NADPH (1 mM). Samples were incubated at 37 °C for up to 240 min. Incubation without the cofactor was conducted in parallel to assess NADPH-independent clearance. The reactions were stopped with 0.2 mL of methanol followed by 0.3 mL chloroform. Residual YC-001 was extracted by vigorous shaking. To facilitate phase separation, the samples were spun down for 2 min, 15,000×g. The chloroform fraction was collected, dried down, and the extracted organic compounds were redissolved in 0.2 mL of methanol. To quantify YC-001, the samples were injected onto an Eclipse XDB-C18 column (4.6 × 150 mm, 5 µm) (Agilent Technologies) equilibrated with solvent composed of 30% acetonitrile in water (v/v), and 0.1% formic acid. YC-001 was eluted in a gradient of acetonitrile in water (30–100%) developed within 15 min at a flow rate of 1 mL min^−1, detected at 350 nm, and quantified by correlating peak areas with known quantities of an original synthetic standard. […]

O=C1OCC(c2ccc(Cl)s2)=C1c1cccs1 [YC-001]
protection of the ONL from light-induced damage (Abca4−/−Rdh8−/− mice): dose-dependent protection of the ONL
initial clearance in liver microsomes [1]: even higher initial clearance compared to the fast clearance drug, verapamil
